Details of the data set: species or system female CD1 mice. As to conditions: mouse, in vivo. As to the method:
In accordance with the procedure outlined in Canc. Res. 47: 3707-3711, female CD1 mice (obtained from Charles River Laboratories) were inoculated intraperitoneally with 10^6 S 180 cells in 100 microliters of phosphate buffered saline (PBS). Controls received PBS only. Both tumor and control mice were divided into three groups of ten mice per group. Rosin and technical grade abietic acid were each dissolved in ethanol at a concentration of 200 mg/ml which was diluted with 10% newborn calf serum in PBS to a ratio of 1:20 to form respective suspensions. Untreated groups (both tumor and control mice) were inoculated intraperitoneally with 1 ml of vehicle alone while […] and the technical grade abietic acid treated groups (both tumor and control) were intraperitoneally inoculated with 1 ml (10 mg) of the technical grade abietic acid suspension, the doses being administered immediately, and thereafter on the third, sixth and ninth days. Data from animals which expired within two hours of any inoculation (at zero, three, six and nine days) were discarded. […]

Take rosin: the adipose tissue deposition result was “increased deposition of adipose tissue”.

For the origin of these results see patent US5248696A, “Composition and method for treating tumors” (World Research Institute for Science and Technology, Inc., priority 1991, dated 1993).
